Measurements from patent publication US8399465B2, “Compounds with two fused bicyclic heteroaryl moieties as modulators of leukotriene A4 hydrolase” (Janssen Pharmaceutica NV, priority 2009, dated 2013).
Structures can show the parent of a compound that is named as a salt. Where two headings read alike, the source gives them in different places.

Assays:
[1] = test system: LTB4 production in murine blood (LTA4H); assay: LTB4 production by calcium ionophore-stimulated murine blood for LTA4H inhibitor activity; assay type: cell-based, CD-1 mice; conditions: Mus musculus
In short: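 LTB4 was measured by ELISA in supernatants after calcium ionophore A23187 stimulation (final 7 μg/mL, 30 min, 37° C) of CD-1 mouse blood collected on heparin. Compound was preincubated with the blood for 15 min beforehand. Values come from one determination or average several.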

[2] = target: T1, recombinant human LTA4 hydrolase (rhLTA4H) (Homo sapiens, UniProt P09960); assay: Recombinant human LTA4 hydrolase assay for LTA4 hydrolase inhibitor activity; assay type: biochemical; conditions: rhLTA4H, LTB4 by immunoassay; single determination or average of two or more; mark after value = form tested: ′ free base, ″ hydrochloride, ^ formate; read-out: IC50
T1 construct: made in house; host or cells: Spodoptera frugiperda (Sf-9) cells, baculovirus (pFastBac1)
T1 sequence (P09960 1-611): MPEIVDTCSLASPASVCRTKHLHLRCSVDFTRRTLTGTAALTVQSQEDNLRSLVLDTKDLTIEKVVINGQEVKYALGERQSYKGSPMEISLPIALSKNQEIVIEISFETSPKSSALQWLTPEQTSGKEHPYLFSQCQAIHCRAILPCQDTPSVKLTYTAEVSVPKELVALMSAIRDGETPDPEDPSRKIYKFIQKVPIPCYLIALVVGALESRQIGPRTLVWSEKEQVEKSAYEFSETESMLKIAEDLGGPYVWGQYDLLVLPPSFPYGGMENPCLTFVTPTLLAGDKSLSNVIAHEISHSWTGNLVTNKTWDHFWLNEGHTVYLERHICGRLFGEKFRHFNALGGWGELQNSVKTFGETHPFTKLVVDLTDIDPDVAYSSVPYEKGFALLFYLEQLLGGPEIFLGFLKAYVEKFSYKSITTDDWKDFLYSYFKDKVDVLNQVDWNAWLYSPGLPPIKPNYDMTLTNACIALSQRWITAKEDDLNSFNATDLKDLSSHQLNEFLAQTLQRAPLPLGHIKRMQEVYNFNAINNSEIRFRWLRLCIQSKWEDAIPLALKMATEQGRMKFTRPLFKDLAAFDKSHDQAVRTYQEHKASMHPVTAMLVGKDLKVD
In short: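 LTB4 formation, measured by enzyme immunoassay, was the read-out. The enzyme, recombinant human LTA4H expressed in Sf-9 insect cells (10 ng per reaction), was exposed to compound for 10 min at room temperature before hydrolysed-ester LTA4 substrate was added for 30 min. Enzyme-free negatives were included.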

[3] = murine blood diluted 1 in 15, A23187 stimulated, single determination or average, mark after value = form tested: ′ free base, ″ hydrochloride, ^ formate, read-out: IC50

| SMILES | IC50 [1, 3] [nM] | IC50 [2] [nM] | IC50 [1] [nM] |
| --- | --- | --- | --- |
| CC(=O)N1C[C@@H]2C[C@H]1CN2Cc1coc2cc(Oc3nc4ccccc4s3)ccc12 [Example 164, (1S,4S)-1-{5-[6-(Benzothiazol-2-yloxy)-benzofuran-3-ylmethyl]-2,5-diaza-bicyclo[2.2.1]hept-2-yl}-ethanone] | 230 | 26 |  |
| NC(=O)N[C@H]1C[C@H]2CC[C@@H](C1)N2Cc1cc2ccc(Oc3nc4ncccc4s3)cc2o1 [Example 172, meso-endo-{8-[6-(Thiazolo[4,5-b]pyridin-2-yloxy)-benzofuran-2-ylmethyl]-8-aza-bicyclo[3.2.1]oct-3-yl}-urea] | 230 | 9 |  |
| NC(=O)N[C@H]1C[C@H]2CC[C@@H](C1)N2Cc1coc2cc(Oc3nc4ncccc4s3)ccc12 [Example 175, meso-endo-{8-[6-(Thiazolo[4,5-b]pyridin-2-yloxy)-benzofuran-3-ylmethyl]-8-aza-bicyclo[3.2.1]oct-3-yl}-urea] | 176 | 2 |  |
| CN(Cc1ccco1)Cc1coc2cc(Oc3nc4ncccc4s3)ccc12 [Example 176, Furan-2-ylmethyl-methyl-[6-(thiazolo[4,5-b]pyridin-2-yloxy)-benzofuran-3-ylmethyl]-amine] | 200 | 60 |  |
| CN(Cc1cccnc1)Cc1coc2cc(Oc3nc4ncccc4s3)ccc12 [Example 178, Methyl-pyridin-3-ylmethyl-[6-(thiazolo[4,5-b]pyridin-2-yloxy)-benzofuran-3-ylmethyl]-amine] | 290 | 20 |  |
| O=C1CCCN1C1CCN(Cc2coc3cc(Oc4nc5ccccc5s4)ccc23)CC1 [Example 179, 1-{1-[6-(Benzothiazol-2-yloxy)-benzofuran-3-ylmethyl]-piperidin-4-yl}-pyrrolidin-2-one] | 75 | 11 |  |
| CC(=O)N[C@H]1C[C@H]2CC[C@@H](C1)N2Cc1coc2cc(Oc3nc4ccccc4s3)ccc12 [Example 181, meso-endo-N-{8-[6-(Benzothiazol-2-yloxy)-benzofuran-3-ylmethyl]-8-aza-bicyclo[3.2.1]oct-3-yl}-acetamide] | 33 | 3 |  |
| FC(F)(F)C1CCN(Cc2cc3ccc(Oc4nc5ncccc5s4)cc3o2)CC1 [Example 191, 2-[2-(4-Trifluoromethyl-piperidin-1-ylmethyl)-benzofuran-6-yloxy]-thiazolo[4,5-b]pyridine formate] | 833 | 10 |  |
| c1cnc2nc(Oc3ccc4cc(CN5CCCCC5)oc4c3)sc2c1 [Example 192, 2-(2-Piperidin-1-ylmethyl-benzofuran-6-yloxy)-thiazolo[4,5-b]pyridine formate] |  | 43 | 120 |
| NC(=O)N1C[C@H]2C[C@@H]1CN2Cc1cc2ccc(Oc3nc4ncccc4s3)cc2o1 [Example 193, (1R,4R)-5-[6-(Thiazolo[4,5-b]pyridin-2-yloxy)-benzofuran-2-ylmethyl]-2,5-diaza-bicyclo[2.2.1]heptane-2-carboxylic acid amide] | 260 | 52 |  |
| NC(=O)N1CC2CN(Cc3cc4ccc(Oc5nc6ncccc6s5)cc4o3)CC2C1 (centres unmarked) [Example 194, 5-[6-(Thiazolo[4,5-b]pyridin-2-yloxy)-benzofuran-2-ylmethyl]-hexahydro-pyrrolo[3,4-c]pyrrole-2-carboxylic acid amide] | 260 | 39 |  |
| CC(=O)N1CC2CN(Cc3cc4ccc(Oc5nc6ncccc6s5)cc4o3)CC2C1 (centres unmarked) [Example 195, 1-{5-[6-(Thiazolo[4,5-b]pyridin-2-yloxy)-benzofuran-2-ylmethyl]-hexahydro-pyrrolo[3,4-c]pyrrol-2-yl}-ethanone] | 151 | 80 |  |
| CC(=O)N1C[C@H]2CC[C@@H](C1)N2Cc1cc2ccc(Oc3nc4cnccc4s3)cc2o1 [Example 202, meso-1-{8-[6-(Thiazolo[4,5-c]pyridin-2-yloxy)-benzofuran-2-ylmethyl]-3,8-diaza-bicyclo[3.2.1]oct-3-yl}ethanone] | 2700 | 1520 |  |
| CC(=O)N1C[C@H]2CC[C@@H](C1)N2Cc1cc2cc(Oc3nc4cnccc4s3)ccc2o1 [Example 206, meso-1-{8-[5-(Thiazolo[4,5-c]pyridin-2-yloxy)-benzofuran-2-ylmethyl]-3,8-diaza-bicyclo[3.2.1]oct-3-yl}-ethanone] | 340 | 147 |  |
| NC(=O)N[C@@H]1C[C@H]2CC[C@@H](C1)N2Cc1coc2cc(Oc3nc4ncccc4s3)ccc12 [Example 207, meso-exo-{8-[6-(Thiazolo[4,5-b]pyridin-2-yloxy)-benzofuran-3-ylmethyl]-8-aza-bicyclo[3.2.1]oct-3-yl}-urea] | 160 | 1 |  |
| NC(=O)N1C[C@H]2CC[C@@H](C1)N2Cc1coc2cc(Oc3nc4ncccc4s3)ccc12 [Example 210, meso-8-[6-(Thiazolo[4,5-b]pyridin-2-yloxy)-benzofuran-3-ylmethyl]-3,8-diaza-bicyclo[3.2.1]octane-3-carboxylic acid amide] | 34 | 5 |  |

Second part, led by results:

| IC50 [1, 3] [nM] | IC50 [2] [nM] | SMILES | IC50 [1] [nM] |
| --- | --- | --- | --- |
| 840 | 95 | c1ccc2sc(Oc3ccc4c(CN5CCOCC5)coc4c3)nc2c1 [Example 165, 2-(3-Morpholin-4-ylmethyl-benzofuran-6-yloxy)-benzothiazole] |  |
| 280 | 59 | CC(=O)N1CCN(Cc2cc3ccc(Oc4nc5ncccc5s4)cc3o2)CC1 [Example 171, 1-{4-[6-(Thiazolo[4,5-b]pyridin-2-yloxy)-benzofuran-2-ylmethyl]-piperazin-1-yl}-ethanone] |  |
| 38 | 21 | CC(=O)NC1CCN(Cc2coc3cc(Oc4nc5ccccc5s4)ccc23)CC1 [Example 180, N-{1-[6-(Benzothiazol-2-yloxy)-benzofuran-3-ylmethyl]-piperidin-4-yl}-acetamide] |  |
| 19 | 4 | c1cnc2nc(Oc3ccc4c(CN5CCCCC5)coc4c3)sc2c1 [Example 212, 2-(3-Piperidin-1-ylmethyl-benzofuran-6-yloxy)-thiazolo[4,5-b]pyridine] |  |
| 36 | 4 | c1cnc(OC2CCN(Cc3coc4cc(Oc5nc6ncccc6s5)ccc34)CC2)nc1 [Example 217, 2-{3-[4-(Pyrimidin-2-yloxy)-piperidin-1-ylmethyl]-benzofuran-6-yloxy}-thiazolo[4,5-b]pyridine] |  |
| 20 | 2 | CCN(CC)Cc1coc2cc(Oc3nc4ncccc4s3)ccc12 [Example 219, Diethyl-[6-(thiazolo[4,5-b]pyridin-2-yloxy)-benzofuran-3-ylmethyl]-amine] |  |
| 12 | 5 | c1cnc2nc(Oc3ccc4c(CN5CCC(c6ccncc6)CC5)coc4c3)sc2c1 [Example 220, 1-[6-(Thiazolo[4,5-b]pyridin-2-yloxy)-benzofuran-3-ylmethyl]-1,2,3,4,5,6-hexahydro-[4,4′]bipyridinyl] |  |
| 366 | 2 | CCOC(=O)C1CCN(Cc2coc3cc(Oc4nc5ncccc5s4)ccc23)CC1 [Example 224, 1-[6-(Thiazolo[4,5-b]pyridin-2-yloxy)-benzofuran-3-ylmethyl]-piperidine-4-carboxylic acid ethyl ester] |  |
| 68 | 32 | NC(=O)N1CCC(N(Cc2coc3cc(Oc4nc5ncccc5s4)ccc23)C2CC2)CC1 [Example 242, 4-{Cyclopropyl-[6-(thiazolo[4,5-b]pyridin-2-yloxy)-benzofuran-3-ylmethyl]-amino}-piperidine-1-carboxylic acid amide] |  |
| 80 | 6 | CS(=O)(=O)N1CCN(Cc2coc3cc(Oc4nc5ncccc5s4)ccc23)CC1 [Example 243, 2-[3-(4-Methanesulfonyl-piperazin-1-ylmethyl)-benzofuran-6-yloxy]-thiazolo[4,5-b]pyridine] |  |
| 32 | 4 | CS(=O)(=O)N1C[C@@H]2CC[C@H]1CN2Cc1coc2cc(Oc3nc4ncccc4s3)ccc12 [Example 245, (1S,4S)-2-Methanesulfonyl-5-[6-(thiazolo[4,5-b]pyridin-2-yloxy)-benzofuran-3-ylmethyl]-2,5-diaza-bicyclo[2.2.2]octane] |  |
| 90 | 14 | CS(=O)(=O)N1CCC(N(Cc2coc3cc(Oc4nc5ncccc5s4)ccc23)C2CC2)CC1 [Example 246, Cyclopropyl-(1-methanesulfonyl-piperidin-4-yl)-[6-(thiazolo[4,5-b]pyridin-2-yloxy)-benzofuran-3-ylmethyl]-amine] |  |
